Data on 1 compound can be found in patent US10272056B2, “Treatment for mitochondrial diseases” (The George Washington University a Congressionally …, priority 2015, dated 2019).

Assay [1] has as its system histones H2B, H3 and H4 proteins. In words: Acetylation of specific lysine residues of histones (immunocytochemistry). The format is cell-based. The following applies: NaBt 5 mM, three days, PC12-ND6 cells. The procedure:
PC12-ND 6 cells were treated with NaBt (5 mM) for three days before performing immunocytochemistry to evaluate the acetylation status of lysine residues of key histone proteins, as listed on top of each confocal micrograph. Left panels illustrate representative pictures of PC12-ND6 cells grown in the absence (control) or presence of NaBt for three days and labeled with specific acetylated Lys antibody (green) and DAPI as a nuclear label (blue). Scale bar represents 10 μm. The right panels show the graph for each quantification of acetylated lysine residue for key histone proteins. Results are expressed as relative fluorescence intensity±S.D. (1000 cells per condition; n=3; * p=0.0001).
Sodium butyrate induces epigenetic reprogramming by acetylating key amino acid residues of histone proteins H2B, H3 and H4. Histone acetylation, which is mediated by two groups of enzymes, histone acetyltransferases (HATs) and histone deacetylases (HDAC), promote gene expression responsible to induce differentiation of neural stem cells and neural progenitor cells. Epigenetic regulators, such as the NaBt and its derivatives, inhibit the activity of HDAC enzymes, thereby favoring HAT activity and inducing an open chromatin structure to allow easy access to the DNA via histone acetylation. Thus, which lysine residues of key histone proteins were targeted by NaBt ws investigated. The lysine residue K27 of the histone H3 protein was targeted, as it is known to be acetylated to favor expression of lineage-specific genes associated with neural differentiation of progenitors and stem cells. Immunocytochemistry results confirmed that NaBt induced a 210% increased acetylation of the K27 residue of H3 (FIG. 5). Analysis was extended to additional acetylation marks, such as the lysine residue K9 of the histone H3, the K12 residue of histone H4 […] are important indicators of active enhancer elements. […] Thus, NaBt induces a specific epigenetic reprogramming of neural-like progenitor PC12-ND6 cell by inducing a series of acetylation marks to confer transcriptional competence.

The subject of assay [2] is ependymal cells of the choroid plexus. The assay can be described thus: In vivo mitochondrial mass of choroid plexus (SOD2 immunohistochemistry). On the set-up: species or system mice. The note with it: NaBt intraperitoneally in E12.5 pregnant dams, brains at E17.5, vs sham. From the text:
FIG. 8 is a schematic and image from microscopy showing that NaBt increases in vivo the mitochondrial mass of ependymal cells of the choroid plexus.
NaBt increases in vivo the mitochondrial mass of ependymal cells of the choroid plexus. NaBt's effect on mitochondrial mass of ependymal cells from the choroid plexus was investigated. It is a highly vascularized tissue lining the brain ventricles, which is responsible for producing and secreting the cerebral spinal fluid (CSF) and for supplying growth factors and key ions to the developing and mature brain ([…]). The secretory functions of the ependymal cells are highly dependent of mitochondria to ensure active transports of small ions, water and growth factors from the blood side to the CSF side. Impairment of mitochondrial functions in the choroid plexus has been documented in neurodegenerative diseases, such as Alzheimer's disease. To test the effect of NaBt in the choroid plexus of the murine developing brain, NaBt was injected intraperitoneally in E12.5 pregnant dams before dissected the brains at E17.5. Immunohistochemistry was performed on E17.5 sectioned brains to analyze the mitochondrial mass using an antibody against the mitochondrial marker SOD2.

Assay [3] deals with PC12-ND6 cells. In words: Mitochondrial mass (mito-GFP live cell microscopy, MTG/MTR flow cytometry). The format is cell-based. The procedure:
PC12-ND6 cells were transfected with the mito-GFP vector prior to treatment with NaBt (5 mM) for the indicated time points. Mitochondria were visualized by live cell microscopy; scale bar=5 μm.
FIG. 7A-7F show images from microscopy and graphs showing NaBt increases mitochondrial mass. (A) Live cell confocal microscopy of E17.5 hippocampal neurons; high magnification in inset; scale bar=5 (B) Quantitative analysis of the mitochondrial biomass in E17.5 neurons using an anti-CoxVα antibody; *p<0.001. (C) Live cell confocal microscopy of PC12-ND6 cells; high magnification in inset; scale bar=5 (D) Flow cytometric analysis of mitochondrial mass; *p<0.001. (E) Confocal microscopy of E17.5 brains from E12.5 pregnant dams treated with PBS (sham) or NaBt; scale bar=20 (F) Quantitative analysis of mitochondrial mass; *p<0.001.
Experimental approaches. Five distinct molecular tools were used to investigate mitochondrial biogenesis: 1) the mitochondrial-specific dyes, MitoTracker® Green (MTG) and MitoTracker® Red (MTR); 2) the mito-GFP or mito-dsRed vector to fluorescently label mitochondria; 3) antibodies against mtDNA, COXVα, or SOD2; 4) the fluorescent PicoGreen® dye labeling mtDNA; and 5) quantitative PCR to determine mtDNA copy number.
NaBt increases the mitochondrial biomass of neuronal cells in vitro and in vivo. To investigate the effect of NaBt on mitochondrial mass, PC12-ND6 cells were transfected with the mito-GFP vector before performing a time course analysis of NaBt (5 mM) treatment.
The effect of NaBt was investigated in embryonic neuronal progenitor cells, E17.5 hippocampal neurons, which were transfected with the mito-GFP vector and then exposed to various concentrations of NaBt. […] Therefore, all subsequent treatment of E17.5 hippocampal neurons with NaBt was performed in the presence of 2 mM. […] Flow cytometric analysis using MTG- or MTR-labeled cells corroborated the NaBt-mediated increase in mitochondrial mass (FIG. 7D).
(Flow cytometry measures light scatter and fluorescence of single cells or particles in a stream.)

Assay [4] relates to PC12-ND6 cells. In words: NGF (100 ng/ml)-mediated neurite outgrowth after chloramphenicol. The format is cell-based. From the text: FIG. 15A-15C are images from microscopy and a graph showing that Pre-treatment of PC12-ND6 cells negates the inhibitory effect of chloramphenicol on NGF-mediated neuronal differentiation. (A) Confocal micrographs of untreated and Cm-treated PC12-ND6 cells transfected with the vector mito-GFP and exposed to NGF. Scale bar represents 20 μm. (B) Confocal micrographs of NaBt pre-treated PC12-ND6 cells transfected with the vector mito-GFP and exposed to chloramphenicol prior to NGF treatment. Scale bar represents 20 μm. (C) Graph of average total neurite length. Mean±SEM (n=50 cells; compared to untreated PC12-ND6 cells *p=0.0001; compared to non-NaBt-treated PC12-ND6 cells with corresponding Cm concentration **p=0.0001).
Based on the results that NaBt endows PC12-ND6 cells with increased mitochondrial mass through biogenesis, resulting in accelerated neuronal differentiation, it was examined whether exposure to NaBt for three days could confer protection to chloramphenicol-mediated inhibition of neuronal differentiation upon NGF signaling.

Where [5] appears, read: flow cytometry, NaBt-treated vs control.

Regarding `CCCC(=O)[O-].[Na+]` [NaBt, sodium butyrate], in assay [1], the “acetylation of histone H2B” value is given as “hyperacetylated”, the “increased acetylation of H3K9” value turned out to be 250%, the “increased acetylation of H4K12” value was 124% and the “increased acetylation of the K27 residue of H3” value is on record as 210%. Besides, the “mitochondrial mass of ependymal cells of the choroid plexus” value in assay [2] was “substantial increase”. For the same compound, the “time of maximal increase of the mitochondrial biomass” value in assay [3] (NaBt 5 mM, mito-GFP time course) is given as “after three days”. Moreover, in assay [3] (setting [5]), the “increase in fluorescence intensity, MTR staining” value is given as 3.5 fold and the “increase in mitochondrial mass, MTG staining” value is “two-fold”. The “mitochondrial density in processes” value in assay [4] (NaBt pre-treated, 60 μM chloramphenicol) is “retained a high mitochondrial density”. Moreover, the “total neurite length with NaBt pre-treatment” value in assay [4] (NaBt three days, highest concentration of chloramphenicol, NGF) was “remained unaffected”.
